{"source": "ChEMBL document CHEMBL4321812", "about": "“Structure-based rational design of staurosporine-based fluorescent probe with broad-ranging kinase affinity for kinase panel application” (Bioorg Med Chem Lett, 2019)", "key": {"[1]": {"target": "Tyrosine-protein kinase BTK (Homo sapiens, UniProt Q06187)", "assay": "Binding affinity to recombinant human full-length N-terminal GST-tagged BTK expressed in baculovirus expression system using srctide as substrate incubated for 1 hr by TR-FRET assay"}, "[2]": {"target": "Fibroblast growth factor receptor 1 (Homo sapiens, UniProt P11362)", "assay": "Binding affinity to recombinant N-terminal His-FLAG-GST-tagged FGFR1 (unknown origin) (396 to 820 residues) expressed in baculovirus infected Sf9 insect cells incubated for 1 hr by TR-FRET assay"}, "[3]": {"target": "Tyrosine-protein kinase receptor UFO (Homo sapiens, UniProt P30530)", "assay": "Binding affinity to recombinant full-length N-terminal His-FLAG-GST-tagged AXL (unknown origin) expressed in baculovirus infected Sf9 insect cells incubated for 1 hr by TR-FRET assay"}, "[4]": {"target": "Tyrosine-protein kinase ABL2 (Homo sapiens, UniProt P42684)", "assay": "Binding affinity to recombinant full-length N-terminal His-FLAG-GST-tagged ABL2 (unknown origin) (2 to 52 and 74 to 1182 residues) expressed in baculovirus infected Sf9 insect cells incubated for 1 hr by TR-FRET assay"}, "[5]": {"target": "Serine/threonine-protein kinase 24 (Homo sapiens, UniProt Q9Y6E0)", "assay": "Binding affinity to recombinant full-length N-terminal His-FLAG-tagged STK24 (unknown origin) expressed in baculovirus infected Sf9 insect cells incubated for 1 hr by TR-FRET assay"}, "[6]": {"target": "Mitogen-activated protein kinase kinase kinase 7 (Homo sapiens, UniProt O43318)", "sequence (O43318 whole entry)": "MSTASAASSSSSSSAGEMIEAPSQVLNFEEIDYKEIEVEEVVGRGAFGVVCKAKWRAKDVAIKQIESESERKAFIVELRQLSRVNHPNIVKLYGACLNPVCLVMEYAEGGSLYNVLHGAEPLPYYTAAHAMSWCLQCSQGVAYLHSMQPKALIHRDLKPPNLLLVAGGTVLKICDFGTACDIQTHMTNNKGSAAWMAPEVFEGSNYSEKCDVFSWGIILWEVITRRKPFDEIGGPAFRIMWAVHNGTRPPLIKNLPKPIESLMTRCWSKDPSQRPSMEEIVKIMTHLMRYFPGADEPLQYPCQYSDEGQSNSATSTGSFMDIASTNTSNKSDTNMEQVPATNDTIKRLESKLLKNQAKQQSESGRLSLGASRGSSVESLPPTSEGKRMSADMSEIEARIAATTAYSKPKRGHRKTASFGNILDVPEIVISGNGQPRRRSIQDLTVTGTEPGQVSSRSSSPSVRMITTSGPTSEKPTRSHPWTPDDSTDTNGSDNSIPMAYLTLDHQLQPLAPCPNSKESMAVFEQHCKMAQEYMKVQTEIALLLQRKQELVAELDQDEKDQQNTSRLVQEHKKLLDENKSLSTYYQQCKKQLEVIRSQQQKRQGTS", "assay": "Binding affinity to recombinant full-length N-terminal His-FLAG-tagged MAP3K7 (unknown origin) expressed in baculovirus infected Sf9 insect cells incubated for 1 hr by TR-FRET assay"}, "[7]": {"target": "Mitogen-activated protein kinase kinase kinase 11 (Homo sapiens, UniProt Q16584)", "assay": "Binding affinity to recombinant N-terminal His-FLAG-GST-tagged MAP3K11 (unknown origin) (99 to 398 residues) expressed in baculovirus infected Sf9 insect cells incubated for 1 hr by TR-FRET assay"}, "[8]": {"target": "Epithelial discoidin domain-containing receptor 1 (Homo sapiens, UniProt Q08345)", "sequence (Q08345 whole entry, the tested form may be a part)": "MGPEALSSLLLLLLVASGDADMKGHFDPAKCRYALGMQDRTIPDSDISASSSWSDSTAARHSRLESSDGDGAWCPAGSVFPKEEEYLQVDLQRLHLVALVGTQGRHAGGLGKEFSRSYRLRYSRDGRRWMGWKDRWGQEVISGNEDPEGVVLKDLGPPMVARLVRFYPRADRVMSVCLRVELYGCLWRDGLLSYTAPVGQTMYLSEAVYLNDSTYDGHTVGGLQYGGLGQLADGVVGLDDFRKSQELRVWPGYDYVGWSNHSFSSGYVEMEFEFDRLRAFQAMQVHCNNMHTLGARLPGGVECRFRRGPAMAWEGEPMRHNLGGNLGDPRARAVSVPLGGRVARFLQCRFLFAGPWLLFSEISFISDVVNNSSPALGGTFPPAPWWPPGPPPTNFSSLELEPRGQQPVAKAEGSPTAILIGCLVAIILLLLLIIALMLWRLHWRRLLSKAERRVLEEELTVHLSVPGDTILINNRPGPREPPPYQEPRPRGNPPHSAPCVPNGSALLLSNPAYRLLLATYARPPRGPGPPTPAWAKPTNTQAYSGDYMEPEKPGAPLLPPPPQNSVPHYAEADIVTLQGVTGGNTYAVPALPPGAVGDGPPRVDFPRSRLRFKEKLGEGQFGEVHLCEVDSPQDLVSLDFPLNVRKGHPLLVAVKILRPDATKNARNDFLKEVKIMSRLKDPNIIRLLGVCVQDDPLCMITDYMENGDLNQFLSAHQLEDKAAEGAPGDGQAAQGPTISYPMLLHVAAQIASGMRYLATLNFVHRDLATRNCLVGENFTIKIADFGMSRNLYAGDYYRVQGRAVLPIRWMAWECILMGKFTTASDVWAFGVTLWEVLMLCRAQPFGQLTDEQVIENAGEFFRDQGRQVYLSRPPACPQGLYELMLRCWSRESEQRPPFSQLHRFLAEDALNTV", "assay": "Binding affinity to recombinant N-terminal His-FLAG-GST-tagged DDR1 (unknown origin) (444 to 876 residues) expressed in baculovirus infected Sf9 insect cells incubated for 1 hr by TR-FRET assay"}, "[9]": {"target": "Tyrosine-protein kinase Fyn (Homo sapiens, UniProt P06241)", "sequence (P06241 whole entry)": "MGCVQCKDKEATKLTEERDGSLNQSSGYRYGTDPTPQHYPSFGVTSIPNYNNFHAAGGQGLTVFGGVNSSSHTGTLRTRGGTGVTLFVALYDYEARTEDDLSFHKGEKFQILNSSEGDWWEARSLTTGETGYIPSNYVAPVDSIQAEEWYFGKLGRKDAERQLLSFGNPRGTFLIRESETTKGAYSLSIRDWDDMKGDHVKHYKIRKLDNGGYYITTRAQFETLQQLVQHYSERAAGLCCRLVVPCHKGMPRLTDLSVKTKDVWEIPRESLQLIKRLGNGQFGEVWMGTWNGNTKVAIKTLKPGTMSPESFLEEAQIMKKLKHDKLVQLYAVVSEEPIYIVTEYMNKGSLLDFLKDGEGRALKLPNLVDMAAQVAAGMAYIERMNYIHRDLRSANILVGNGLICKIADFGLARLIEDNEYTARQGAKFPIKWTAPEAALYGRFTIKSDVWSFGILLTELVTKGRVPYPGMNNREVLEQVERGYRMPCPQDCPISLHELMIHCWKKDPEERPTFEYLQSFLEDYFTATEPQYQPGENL", "assay": "Binding affinity to recombinant full-length N-terminal His-FLAG-tagged FYN (unknown origin) expressed in baculovirus infected Sf9 insect cells incubated for 1 hr by TR-FRET assay"}, "[10]": {"target": "Tyrosine-protein kinase Fer (Homo sapiens, UniProt P16591)", "assay": "Binding affinity to recombinant full-length N-terminal His-FLAG-GST-tagged FER (unknown origin) expressed in baculovirus infected Sf9 insect cells incubated for 1 hr by TR-FRET assay"}, "[11]": {"target": "Protein kinase C zeta type (Homo sapiens, UniProt Q05513)", "sequence (Q05513 whole entry)": "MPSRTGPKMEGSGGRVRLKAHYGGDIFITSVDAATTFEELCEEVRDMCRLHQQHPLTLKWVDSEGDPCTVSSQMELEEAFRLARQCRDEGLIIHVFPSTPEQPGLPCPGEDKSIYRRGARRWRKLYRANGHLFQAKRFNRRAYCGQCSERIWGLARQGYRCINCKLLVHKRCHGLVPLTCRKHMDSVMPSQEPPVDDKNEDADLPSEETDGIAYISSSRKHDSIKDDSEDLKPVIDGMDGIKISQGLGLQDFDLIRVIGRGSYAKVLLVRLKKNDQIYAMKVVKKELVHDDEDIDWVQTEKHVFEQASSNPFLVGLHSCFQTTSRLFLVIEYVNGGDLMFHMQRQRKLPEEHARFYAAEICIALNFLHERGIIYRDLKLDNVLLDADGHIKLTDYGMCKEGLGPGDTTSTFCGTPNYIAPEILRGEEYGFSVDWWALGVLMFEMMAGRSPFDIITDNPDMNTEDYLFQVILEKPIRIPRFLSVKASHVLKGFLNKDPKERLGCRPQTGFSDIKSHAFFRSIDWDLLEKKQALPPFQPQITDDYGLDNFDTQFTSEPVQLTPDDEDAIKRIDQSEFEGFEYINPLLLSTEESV", "assay": "Binding affinity to recombinant full-length N-terminal His-FLAG-GST-tagged PRKCZ (unknown origin) expressed in baculovirus infected Sf9 insect cells incubated for 1 hr by TR-FRET assay"}, "[12]": {"target": "5'-AMP-activated protein kinase catalytic subunit alpha-2 (Homo sapiens, UniProt P54646)", "assay": "Binding affinity to recombinant full-length N-terminal His-FLAG-GST-tagged PRKAA2 (unknown origin) (10 to 552 residues) expressed in baculovirus infected Sf9 insect cells incubated for 1 hr by TR-FRET assay"}, "[13]": {"target": "Tyrosine-protein kinase JAK3 (Homo sapiens, UniProt P52333)", "assay": "Binding affinity to recombinant full-length N-terminal His-FLAG-GST-tagged JAK3 (unknown origin) (795 to 1124 residues) expressed in baculovirus infected Sf9 insect cells incubated for 1 hr by TR-FRET assay"}, "[14]": {"target": "Myosin light chain kinase, smooth muscle (Homo sapiens, UniProt Q15746)", "assay": "Binding affinity to recombinant full-length N-terminal His-FLAG-GST-tagged MYLK (unknown origin) (1428 to 1771 residues) expressed in baculovirus infected Sf9 insect cells incubated for 1 hr by TR-FRET assay"}, "[15]": {"target": "Serine/threonine-protein kinase 32C (Homo sapiens, UniProt Q86UX6)", "sequence (Q86UX6 whole entry, the tested form may be a part)": "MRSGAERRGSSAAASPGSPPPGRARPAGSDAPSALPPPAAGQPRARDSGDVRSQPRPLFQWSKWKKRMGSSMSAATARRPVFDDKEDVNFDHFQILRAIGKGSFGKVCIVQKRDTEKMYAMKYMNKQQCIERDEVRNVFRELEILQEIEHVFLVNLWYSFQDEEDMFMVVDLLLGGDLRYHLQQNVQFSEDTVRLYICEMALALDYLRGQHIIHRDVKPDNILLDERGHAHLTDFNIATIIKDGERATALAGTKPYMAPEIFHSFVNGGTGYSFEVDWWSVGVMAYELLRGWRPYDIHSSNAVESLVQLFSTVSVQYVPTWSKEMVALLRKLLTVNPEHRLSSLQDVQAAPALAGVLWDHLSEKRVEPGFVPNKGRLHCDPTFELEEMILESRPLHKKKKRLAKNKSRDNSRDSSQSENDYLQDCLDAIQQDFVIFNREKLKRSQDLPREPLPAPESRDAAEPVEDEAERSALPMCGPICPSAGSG", "assay": "Binding affinity to recombinant full-length N-terminal His-FLAG-GST-tagged STK32C (unknown origin) (66 to 486 residues) expressed in baculovirus infected Sf9 insect cells incubated for 1 hr by TR-FRET assay"}, "[16]": {"target": "CDK9/cyclin T1 (Homo sapiens, UniProt P50750)", "sequence (O60563 whole entry)": "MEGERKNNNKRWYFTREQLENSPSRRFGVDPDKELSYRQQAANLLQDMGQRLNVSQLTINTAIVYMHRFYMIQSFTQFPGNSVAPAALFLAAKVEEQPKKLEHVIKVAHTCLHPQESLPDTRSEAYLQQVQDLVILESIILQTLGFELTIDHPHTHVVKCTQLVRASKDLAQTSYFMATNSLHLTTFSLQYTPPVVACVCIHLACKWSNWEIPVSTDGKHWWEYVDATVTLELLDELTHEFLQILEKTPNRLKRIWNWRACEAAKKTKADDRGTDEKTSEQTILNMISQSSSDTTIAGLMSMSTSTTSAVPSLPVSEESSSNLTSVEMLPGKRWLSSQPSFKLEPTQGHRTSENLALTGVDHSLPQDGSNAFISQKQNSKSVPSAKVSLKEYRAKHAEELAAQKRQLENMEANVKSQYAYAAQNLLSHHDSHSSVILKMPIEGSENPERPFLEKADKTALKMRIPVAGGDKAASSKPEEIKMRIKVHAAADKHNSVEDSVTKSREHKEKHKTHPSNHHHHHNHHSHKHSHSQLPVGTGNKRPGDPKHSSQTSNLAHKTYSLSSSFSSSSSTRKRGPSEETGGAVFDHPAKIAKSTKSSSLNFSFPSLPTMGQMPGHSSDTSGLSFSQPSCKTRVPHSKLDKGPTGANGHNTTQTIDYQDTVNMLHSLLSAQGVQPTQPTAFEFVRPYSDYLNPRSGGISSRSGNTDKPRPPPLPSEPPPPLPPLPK", "sequence (P50750 whole entry)": "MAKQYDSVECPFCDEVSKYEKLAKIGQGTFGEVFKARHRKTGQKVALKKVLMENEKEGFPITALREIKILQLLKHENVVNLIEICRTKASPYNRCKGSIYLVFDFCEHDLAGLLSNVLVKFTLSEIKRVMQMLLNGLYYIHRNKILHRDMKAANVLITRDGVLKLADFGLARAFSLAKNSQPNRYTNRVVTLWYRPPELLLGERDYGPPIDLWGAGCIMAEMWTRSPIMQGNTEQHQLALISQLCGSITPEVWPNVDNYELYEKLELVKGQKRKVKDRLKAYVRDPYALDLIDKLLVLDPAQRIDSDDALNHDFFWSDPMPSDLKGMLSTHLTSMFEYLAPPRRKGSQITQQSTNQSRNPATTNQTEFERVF", "assay": "Binding affinity to recombinant human full length N-terminal GST-tagged CDK9 co-expressed with full length N-terminal His-tagged CyclinT1 expressed in baculovirus expression system using CDK9 substrate incubated for 1 hr by TR-FRET assay"}, "[17]": {"target": "Calcium/calmodulin-dependent protein kinase type II subunit beta (Homo sapiens, UniProt Q13554)", "assay": "Binding affinity to recombinant human full length N-terminal GST-tagged CAMK2B expressed in baculovirus expression system using GS peptide as substrate incubated for 1 hr in presence of calmodulin by TR-FRET assay"}, "[18]": {"target": "Serine/threonine-protein kinase N1 (Homo sapiens, UniProt Q16512)", "assay": "Binding affinity to recombinant full-length N-terminal His-FLAG-GST-tagged PKN1 (unknown origin) expressed in baculovirus infected Sf9 insect cells incubated for 1 hr by TR-FRET assay"}, "[19]": {"target": "Serine/threonine-protein kinase TBK1 (Homo sapiens, UniProt Q9UHD2)", "assay": "Binding affinity to recombinant human full length N-terminal GST-tagged TBK1 expressed in baculovirus expression system using CKtide as substrate incubated for 1 hr by TR-FRET assay"}, "[20]": {"target": "CDK8/Cyclin C (Homo sapiens, UniProt P49336)", "sequence (P49336 whole entry)": "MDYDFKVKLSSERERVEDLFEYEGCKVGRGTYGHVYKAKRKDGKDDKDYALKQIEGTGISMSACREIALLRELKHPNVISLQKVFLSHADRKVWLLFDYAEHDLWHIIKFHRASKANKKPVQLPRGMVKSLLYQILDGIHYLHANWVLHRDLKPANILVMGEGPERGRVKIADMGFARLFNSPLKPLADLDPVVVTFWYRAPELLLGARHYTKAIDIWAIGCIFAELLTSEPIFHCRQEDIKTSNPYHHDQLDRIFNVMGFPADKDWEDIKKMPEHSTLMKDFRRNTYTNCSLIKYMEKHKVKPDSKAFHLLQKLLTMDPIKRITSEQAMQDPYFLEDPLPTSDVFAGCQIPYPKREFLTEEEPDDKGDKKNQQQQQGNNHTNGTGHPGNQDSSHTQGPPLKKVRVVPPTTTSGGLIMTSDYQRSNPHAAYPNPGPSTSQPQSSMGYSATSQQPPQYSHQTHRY", "sequence (P24863 whole entry, further chain)": "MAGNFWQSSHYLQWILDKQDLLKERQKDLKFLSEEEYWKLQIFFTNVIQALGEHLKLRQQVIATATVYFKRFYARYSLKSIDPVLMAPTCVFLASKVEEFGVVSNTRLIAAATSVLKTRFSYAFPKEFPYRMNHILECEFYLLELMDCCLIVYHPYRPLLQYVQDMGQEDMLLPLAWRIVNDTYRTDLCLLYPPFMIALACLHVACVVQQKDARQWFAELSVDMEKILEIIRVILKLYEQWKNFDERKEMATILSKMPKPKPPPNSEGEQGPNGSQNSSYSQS", "assay": "Binding affinity to recombinant human full length N-terminal GST-tagged CDK8 co-expressed with N-terminal GST-tagged CyclinC expressed in baculovirus expression system using RNA polymerase peptide as substrate incubated for 1 hr by TR-FRET assay"}, "[21]": {"target": "Ribosomal protein S6 kinase alpha-2 (Homo sapiens, UniProt Q15349)", "assay": "Binding affinity to recombinant human full length N-terminal GST-tagged RPS6KA2 expressed in baculovirus expression system using S6K peptide as substrate incubated for 1 hr by TR-FRET assay"}, "[22]": {"target": "Dual specificity tyrosine-phosphorylation-regulated kinase 1B (Homo sapiens, UniProt Q9Y463)", "assay": "Binding affinity to recombinant full-length N-terminal His-FLAG-tagged DYRK1B (unknown origin) expressed in baculovirus infected Sf9 insect cells incubated for 1 hr by TR-FRET assay"}, "[23]": {"target": "Ribosomal protein S6 kinase beta-1 (Homo sapiens, UniProt P23443, T412E)", "assay": "Binding affinity to recombinant human full length N-terminal GST-tagged RPS6KB1 T412E mutant expressed in baculovirus expression system using S6K2 peptide as substrate incubated for 1 hr by TR-FRET assay"}, "[24]": {"target": "Protein kinase C delta type (Homo sapiens, UniProt Q05655)", "assay": "Binding affinity to recombinant human full length N-terminal GST-tagged PRKCD expressed in baculovirus expression system using PKC peptide as substrate incubated for 1 hr by TR-FRET assay"}}}
{"smiles": "CO[C@@H]1[C@H](NCCOCCOCCOCCNC(=O)CCC2=[N+]3C(=Cc4c(C)cc(C)n4[B-]3(F)F)C=C2)C[C@H]2O[C@]1(C)n1c3ccccc3c3c4c(c5c6ccccc6n2c5c31)C(=O)NC4", "values": [{"measurement": "Kd", "setting": "[1]", "value": 374, "unit": "nM"}, {"measurement": "Kd", "setting": "[2]", "value": 268, "unit": "nM"}, {"measurement": "Kd", "setting": "[3]", "value": 313, "unit": "nM"}, {"measurement": "Kd", "setting": "[4]", "value": 531, "unit": "nM"}, {"measurement": "Kd", "setting": "[5]", "value": 436, "unit": "nM"}, {"measurement": "Kd", "setting": "[6]", "value": 44, "unit": "nM"}, {"measurement": "Kd", "setting": "[7]", "value": 3, "unit": "nM"}, {"measurement": "Kd", "setting": "[8]", "value": 674, "unit": "nM"}, {"measurement": "Kd", "setting": "[9]", "value": 267, "unit": "nM"}, {"measurement": "Kd", "setting": "[10]", "value": 27, "unit": "nM"}, {"measurement": "Kd", "setting": "[11]", "value": 1250, "unit": "nM"}, {"measurement": "Kd", "setting": "[12]", "value": 45, "unit": "nM"}, {"measurement": "Kd", "setting": "[13]", "value": 14, "unit": "nM"}, {"measurement": "Kd", "setting": "[14]", "value": 369, "unit": "nM"}, {"measurement": "Kd", "setting": "[15]", "value": 448, "unit": "nM"}, {"measurement": "Kd", "setting": "[16]", "value": 162, "unit": "nM"}, {"measurement": "Kd", "setting": "[17]", "value": 19, "unit": "nM"}, {"measurement": "Kd", "setting": "[18]", "value": 11, "unit": "nM"}, {"measurement": "Kd", "setting": "[19]", "value": 17, "unit": "nM"}, {"measurement": "Kd", "setting": "[20]", "value": 299, "unit": "nM"}, {"measurement": "Kd", "setting": "[21]", "value": 8, "unit": "nM"}, {"measurement": "Kd", "setting": "[22]", "value": 107, "unit": "nM"}, {"measurement": "Kd", "setting": "[23]", "value": 40, "unit": "nM"}, {"measurement": "Kd", "setting": "[24]", "value": 13, "unit": "nM"}]}
{"smiles": "CO[C@@H]1[C@H](N(C)CCOCCOCCOCCNC(=O)CCC2=[N+]3C(=Cc4c(C)cc(C)n4[B-]3(F)F)C=C2)C[C@H]2O[C@]1(C)n1c3ccccc3c3c4c(c5c6ccccc6n2c5c31)C(=O)NC4", "values": [{"measurement": "Kd", "setting": "[1]", "value": 437, "unit": "nM"}, {"measurement": "Kd", "setting": "[2]", "value": 643, "unit": "nM"}, {"measurement": "Kd", "setting": "[3]", "value": 559, "unit": "nM"}, {"measurement": "Kd", "setting": "[4]", "value": 947, "unit": "nM"}, {"measurement": "Kd", "setting": "[5]", "value": 767, "unit": "nM"}, {"measurement": "Kd", "setting": "[6]", "value": 60, "unit": "nM"}, {"measurement": "Kd", "setting": "[7]", "value": 4, "unit": "nM"}, {"measurement": "Kd", "setting": "[8]", "value": 888, "unit": "nM"}, {"measurement": "Kd", "setting": "[9]", "value": 322, "unit": "nM"}, {"measurement": "Kd", "setting": "[10]", "value": 30, "unit": "nM"}, {"measurement": "Kd", "setting": "[11]", "value": 1350, "unit": "nM"}, {"measurement": "Kd", "setting": "[12]", "value": 46, "unit": "nM"}, {"measurement": "Kd", "setting": "[13]", "value": 13, "unit": "nM"}, {"measurement": "Kd", "setting": "[14]", "value": 298, "unit": "nM"}, {"measurement": "Kd", "setting": "[15]", "value": 326, "unit": "nM"}, {"measurement": "Kd", "setting": "[16]", "value": 116, "unit": "nM"}, {"measurement": "Kd", "setting": "[17]", "value": 12, "unit": "nM"}, {"measurement": "Kd", "setting": "[18]", "value": 6, "unit": "nM"}, {"measurement": "Kd", "setting": "[19]", "value": 9, "unit": "nM"}, {"measurement": "Kd", "setting": "[20]", "value": 148, "unit": "nM"}, {"measurement": "Kd", "setting": "[21]", "value": 4, "unit": "nM"}, {"measurement": "Kd", "setting": "[22]", "value": 40, "unit": "nM"}, {"measurement": "Kd", "setting": "[23]", "value": 13, "unit": "nM"}, {"measurement": "Kd", "setting": "[24]", "value": 3, "unit": "nM"}]}
